Results: article PMC7321408, “One-Pot Multicomponent Synthesis and Bioevaluation of Tetrahydroquinoline Derivatives as Potential Antioxidants, α-Amylase Enzyme Inhibitors, Anti-Cancerous and Anti-Inflammatory Agents” (Molecules, 2020)
Where “and” joins values, the source holds several entries; their conditions need not be identical. Equal values may be shown once.

Key:
brine shrimp nauplii = assay: Brine shrimp lethality bioassay; type: in vivo; conditions: 24 h, n = 3
Procedure, shortened: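 Ten hatched nauplii per well in artificial seawater were exposed to test compounds at 400, 200, 100 and 50 µg/mL under a lamp. Survivors counted after 24 h; percentage mortality calculated; triplicate.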

[1] = Total reducing power (TRP) assay
Description: A TRP assay was carried out to evaluate the reducing potential of synthetic compounds. The method implicates reductones. These reductones are species with antioxidant potential that is believed to be due to their proton-donating capacity. […] The maximum value of reducing power was 104.7 ± 1.9 µg/AAE for SF5, followed by 103.18 ± 2.4 µg/AAE for SF7 and 84.57 ± 1.9 µg/AAE for SF12 (Figure 3 and Figure 4 (standard curve)).
The assay is based on the reduction of Fe^+3 to Fe^+2. The method described by Khan et al. was used with slight modifications. One hundred microliters of test samples (4 mg/mL DMSO) were taken in an Eppendrof tube and 200 μL of phosphate buffer (0.2 mol/L, pH 6.6) and 250 µL of 1% potassium ferricyanide (K3Fe CN)6) were added. This was allowed to incubate at 50 °C for 20 min. Later on, 200 μL of 10% trichloroacetic acid (TCA) was added to the mixture. The mixture was centrifuged at 3000 rpm at room temperature for 10 min. After centrifugation, 150 µL of supernatant were transferred to microplate with FeCl3 (50 μL, 0.1%) and the absorbance was taken at 630 nm. The results were calculated as µg AAE/mg.

[2] = tested on: carrageenan-induced paw edema; assay: Carrageenan-induced paw edema (in vivo anti-inflammatory activity); parameters: species or system BALB/C albino mice; unit not given beside the values; conditions: 10 mg/kg, mice, n = 5
Description: At 7–8 weeks old, male BALB/C albino mice (29–35 g), were purchased from The National Institute of Health (NIH), Islamabad, Pakistan. Five animals were housed per group and placed in a controlled temperature and humidity-controlled room (22 °C and 66 ± 5%, respectively) in a 12 h light–dark cycle and provided with water and food ad libitum. Ethical approval was taken from the bio-ethical committee of Quaid-I-Azam University (Approval No. BEC-FBS-QAU2018-119) and all protocols were conducted following the Ethical Guide to the Code of Practice for the Housing and Care of Animals Act 1986 (ARRIVE (Animal Research: Reporting In Vivo Experiments) guidelines). The anti-inflammatory activity of the synthesized compounds was evaluated by using the carrageenan-induced rat paw edema assay. To determine the dose response of tetrahydroquinoline derivatives, animals were first given a dose of 0.1, 1 and 10 mg/kg against 100 µL carrageenan (1% solution in normal saline)/paw. Treatment was given 60 min before carrageenan injection. Readings were taken at 4 h post carrageenan injection. The in vivo anti-inflammatory activity was performed following the procedure described by Koksal, et al. in 2017. Paw edema was induced by injecting 100 µL of 1% sterile carrageenan solution into the right hind paw of mice. Synthesized compounds (10 mg/kg), vehicle (saline with 2% DMSO) and drug (acetylsalicylic acid, ASA 10 mg/kg) were administered to the mice orally by gastric intubation 60 min before injecting carrageenan into the right hind paw. The decrease in edema was measured by vernier calipers every 2 h.

raw macrophages = assay: MTT cytotoxicity against raw macrophages; type: cell-based, albino rats; conditions: mean ± SEM, n = 3
Procedure, shortened: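 Peritoneal macrophages from albino rats were treated for 24 h at 37 °C, 5% CO2 with test compounds at 100, 50, 10 and 1 µM or vehicle, from DMSO stocks. MTT was then added for 2 h, formazan dissolved in DMSO and absorbance read at 570 nm. % viability = blank-corrected sample over blank-corrected control ×100.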

α-amylase enzyme = assay: α-Amylase enzyme inhibitory assay; type: biochemical; conditions: 200 µg/mL
Description: An in vitro α-amylase enzyme inhibitory assay was performed by the standard protocol. Four milligrams per 1 mL of sample was prepared in DMSO. In each well of a 96-well plate, synthetic compounds were added to a final concentration of 200 µg/mL. To this, 15 μL phosphate buffer, […] α-amylase enzyme and 40 μL starch solution were added stepwise. The microplate was incubated at 50 °C for 30 min. […] The formula used to calculate the percent enzyme inhibition is:% Enzyme inhibition = [(As − An) ÷ (Ab − An] × 100
As = sample’s absorbance; An = negative’s absorbance; Ab = blank’s absorbance

[3] = Phosphomolybdenum-based total antioxidant capacity (TAC)
Description: In the presence of an antioxidant, the phosphomolybdate ion gets reduced and a green phosphate–molybdate complex is formed, which is analyzed spectrophotometrically.
The total antioxidant capacity was determined by using the phosphomolybdenum-based method. The method is based on the reduction of Mo (VI) to Mo (V), leading to the formation of a green-colored phosphate–molybdenum complex that gives absorption at 630 nm. In 96-well plates, 20 µL of the sample was added with 180 µL TAC reagents in it and incubated at 95 °C for 90 min in a water bath and cooled at room temperature. The results were calculated as µg AAE/mg.

Row | % inhibition of α-amylase enzyme (α-amylase enzyme) [%] | Structure (SMILES) | LD50 ± SEM (brine shrimp lethality) (brine shrimp nauplii) | Total reducing power (TRP) [1] [µg/AAE] | Paw thickness ([2]; 0 h after carrageenan injection) | Paw thickness ([2]; 2 h after carrageenan injection) | Paw thickness ([2]; 4 h after carrageenan injection) | Paw thickness ([2]; 6 h after carrageenan injection) | IC50 (raw macrophages) [µM] | Total antioxidant capacity (TAC) [3] [µg/AAE]
1 | – | c1ccc2c(c1)CCCN2CN1CCCCC1 [SF1, 1-(Piperidine-1-ylmethyl) 1,2,3,4-tetrahahydroquinoline] | 120 ± 2.3 µg/mL and 120.8 ± 2.3 µg/mL | 33.22 ± 1.5 | 2.06 ± 0.07 | 2.13 ± 0.03 | 2.18 ± 0.06 | 2.25 ± 0.05 | 6.23 ± 0.01 | –
2 | 97.37 | CN1CCN(CN2CCCc3ccccc32)CC1 [SF5] | 94 ± 1.06 µg/mL | 104.7 ± 1.9 | – | – | – | – | – | 285.46 ± 2.1
3 | 88.67 | c1ccc(N(CN2CCCc3ccccc32)c2ccccc2)cc1 [SF7, N-((3,4-dihydroquinolin-1(2H)-yl)methyl)-N-phenylaniline] | 100.8 ± 1.14 µg/mL | 103.18 ± 2.4 | – | – | – | – | – | 242.77 ± 2.31
